Source: patent publication US9682995B2, “Amino-substituted isothiazoles” (BAYER PHARMA AKTIENGESELLSCHAFT, priority 2013, dated 2017)

These molecules were tested on spindle assembly checkpoint (assay: SAC-Formation - Nocodazole-Induced Assay). Conditions: Homo sapiens; HeLa cells, nocodazole 0.1 μg/ml, 24 h, phosphorylated histone H3 on serine 10.
Format: cell-based
Description: The spindle assembly checkpoint assures the proper segregation of chromosomes during mitosis. Upon entry into mitosis, chromosomes begin to condensate which is accompanied by the phosphorylation of histone H3 on serine 10. Dephosphorylation of histone H3 on serine 10 begins in anaphase and ends at early telophase. Accordingly, phosphorylation of histone H3 on serine 10 can be utilized as a marker of cells in mitosis. Nocodazole is a microtubule destabilizing substance. Paclitaxel is a microtubule stabilizing compound. Thus, nocodazole as well as paclitaxel interfere with microtubule dynamics and mobilize the spindle assembly checkpoint. […] The mitotic breakthrough can be detected by the decrease of cells with phosphorylation of histone H3 on serine 10. This decline is used as a marker to determine the capability of compounds of the present invention to induce a mitotic breakthrough. The typical morphological alteration of nuclei with a prematurely completed mitosis after SAC-inhibition can be monitored via image analysis routines supporting those findings.
The nocodazole and paclitaxel variations were used to focus on compounds that are capable of inhibiting a SAC induced by both microtubule destabilization as well as microtubule stabilization. When SAC inducing agents and compounds are given simultaneously, inhibitors that effectively block the SAC during formation or abrogation are identified. When cells are incubated with a SAC inducing agent and the SAC interfering compound is given after a defined time, inhibitors are identified that effectively block SAC abrogation.
Cultivated cells of the human cervical tumor cell line HeLa (ATCC CCL-2) were plated at a density of 1000 cells/well in a 1536-well microtiter plate in 2 μl PAA Ham's F12 Medium supplemented with 1% (v/v) glutamine, 1% (v/v) penicillin, 1% (v/v) streptomycin and 10% (v/v) fetal calf serum. After incubation overnight at 37° C., 10 μl/well nocodazole at a final concentration of 0.1 μg/ml were added to cells. Test compounds solubilized in dimethyl sulfoxide (DMSO) were added at various concentrations (0 μM, as well as in the range of 0.005 μM-20 μM; the final concentration of the solvent DMSO was 0.5% (v/v)). Cells were incubated for 24 h at 37° C. in the presence of test compounds in combination with nocodazole. Thereafter, cells were fixed in 4% (v/v) paraformaldehyde in phosphate buffered saline (PBS) at 4° C. overnight then permeabilized in 0.1% (v/v) Triton X™ 100 in PBS at room temperature for 20 min and blocked in 0.5% (v/v) bovine serum albumin (BSA) in PBS at room temperature for 15 min. After washing with PBS, 5 μl/well antibody solution (anti-phospho-histone H3 clone 3H10, FITC; Millipore, Cat #16-222; 1:1000 dilution) was added to cells, which were incubated for 2 h at room temperature. Afterwards, cells were washed with PBS and 5 μl/well solution of HOECHST 33342 dye (5 μg/ml) was added to cells and cells were incubated 15 min at room temperature in the dark. Cells were washed twice with PBS then covered with PBS and stored at 4° C. until analysis. Images were acquired with a PERKIN ELMER OPERA™ High-Content Analysis reader. Images were analyzed with image analysis software MetaXpress™ from Molecular devices utilizing the Mitotic Index application module. In this assay both labels HOECHST 33342 and phosphorylated Histone H3 on serine 10 were measured. HOECHST 33342 labels the DNA and is used to count the cell number. The staining of phosphorylated Histone H3 on serine 10 determines the number of mitotic cells. […] Otherwise cells were arrested at G2/M phase of the cell cycle progression. The raw assay data were further analyzed by four-parametric hill equation using Genedata's Assay Analyzer and Condoseo software.

Compound | IC50 [µM]
CCc1ccccc1NC(=O)c1c(C)nsc1Nc1ncccc1OC [Example 144] | > 20
CCc1ccccc1NC(=O)c1c(C)nsc1Nc1ccccn1 [Example 142] | 14
COc1ccc(NC(=O)c2c(C)nsc2Nc2ncc(C(=O)N3CCOCC3)s2)cn1 [Example 128] | 13
CNc1cncc(Nc2snc(C)c2C(=O)Nc2ccc(F)c(F)c2)n1 [Example 132] | 14
CCOc1ccc(NC(=O)c2c(C)nsc2Nc2cc(C#N)ccn2)cn1 [Example 143] | > 20
COc1ccc(NC(=O)c2c(C)nsc2Nc2ncc(C(N)=O)s2)cn1 [Example 152] | > 20
COc1ccc(NC(=O)c2c(C)nsc2Nc2nc3cnccc3s2)cn1 [Example 129] | 14
CCc1ccccc1NC(=O)c1c(C)nsc1Nc1ncccn1 [Example 137] | > 20
CCc1ccccc1NC(=O)c1c(C)nsc1Nc1nccc2ccccc12 [Example 138] | 17
CCOC(=O)c1cnc(Nc2snc(C)c2C(=O)Nc2ccc(OC)nc2)o1 [Example 150] | 16
COc1ccnc(Nc2snc(C)c2C(=O)Nc2ccc(F)c(F)c2)c1 [Example 125] | > 20
CCc1ccccc1NC(=O)c1c(C)nsc1Nc1ncnc(C)c1C [Example 159] | 15
CCc1ccccc1NC(=O)c1c(C)nsc1Nc1cccc(OC)n1 [Example 148] | > 20
Cc1nsc(Nc2nc(C(=O)N(C)C)cs2)c1C(=O)Nc1ccc(F)c(F)c1 [Example 131] | 11
Cc1nsc(Nc2cc(C(=O)N(C)C)ccn2)c1C(=O)Nc1ccc(F)c(F)c1 [Example 130] | > 20
CCc1ccccc1NC(=O)c1c(C)nsc1Nc1cc(OC)ccn1 [Example 134] | > 20
COC(=O)c1cnc(Nc2snc(C)c2C(=O)Nc2ccc(OC)nc2)o1 [Example 147] | 13
COc1ccc(NC(=O)c2c(C)nsc2Nc2ccc(C#N)cn2)cc1F [Example 162] | > 20
COC(=O)c1ccnc(Nc2snc(C)c2C(=O)Nc2ccc(OC)nc2)c1 [Example 140] | > 20
CCc1ccccc1NC(=O)c1c(C)nsc1Nc1ncccc1C [Example 141] | 19
CCOC(=O)c1cc(C)nc(Nc2snc(C)c2C(=O)Nc2ccccc2CC)c1 [Example 139] | > 20
COc1ccc(NC(=O)c2c(C)nsc2Nc2ncc(C(=O)O)s2)cn1 [Example 126] | 19
Cc1nsc(Nc2cncc(C(=O)N3CCN(C)CC3)n2)c1C(=O)Nc1ccc(F)c(F)c1 [Example 133] | 15
CCc1ccccc1NC(=O)c1c(C)nsc1Nc1cnc(C(N)=O)cn1 [Example 161] | 15
CCc1ccccc1NC(=O)c1c(C)nsc1Nc1ncc(OC)cn1 [Example 135] | 16
CCc1ccccc1NC(=O)c1c(C)nsc1Nc1nc(C)cc(C)n1 [Example 127] | > 20
COc1ccc(NC(=O)c2c(C)nsc2Nc2nc3ncc(C(F)(F)F)cc3s2)cn1 [Example 124] | 18

Stronger by IC50, values ahead:

IC50 [µM] | Compound
0.22 | COc1ccc(NC(=O)c2c(C)nsc2Nc2nc3c(C(F)(F)F)ccnc3s2)cn1 [Example 123]
1.7 | Cc1nsc(Nc2ccc(C(N)=O)cn2)c1C(=O)Nc1ccc(Cl)c(F)c1 [Example 151]
1.5 | Cc1nsc(Nc2ccc(C(=O)N(C)C)nn2)c1C(=O)Nc1ccc(F)c(F)c1 [Example 153]
4.1 | CCc1ccccc1NC(=O)c1c(C)nsc1Nc1cc(C(=O)OC)ccn1 [Example 149]
4.2 | COc1ccc(NC(=O)c2c(C)nsc2Nc2ncc(C#N)s2)cn1 [Example 158]
7.2 | CCc1ccccc1NC(=O)c1c(C)nsc1Nc1ccc(C(=O)OC)cn1 [Example 145]
5.8 | COc1ccc(NC(=O)c2c(C)nsc2Nc2ncc(C(=O)N(C)C)s2)cn1 [Example 155]
1.4 | CCc1ccccc1NC(=O)c1c(C)nsc1Nc1cnc(C(=O)OC)cn1 [Example 146]
4.3 | CCNC(=O)c1cnc(Nc2snc(C)c2C(=O)Nc2ccc(OC)nc2)s1 [Example 154]
2.6 | COc1ccc(NC(=O)c2c(C)nsc2Nc2nc(C(N)=O)cs2)cn1 [Example 160]
0.55 | COc1ccc(NC(=O)c2c(C)nsc2Nc2nc(-c3ccc(Cl)cc3)cs2)cn1 [Example 156]
2.8 | COc1ccc(Oc2ccc(NC(=O)c3c(C)nsc3Nc3ccc(C#N)cn3)cn2)cc1 [Example 157]
6.8 | CCc1cnc(Nc2snc(C)c2C(=O)Nc2ccccc2CC)nc1 [Example 136]
1.3 | Cc1nsc(Nc2cnccn2)c1C(=O)Nc1ccc(OC2CCCCC2)nc1 [Example 163]
